Data reported in ChEMBL document CHEMBL5518178 (Eur J Med Chem, 2024).

Key:
[1] = Toxicity in BALB/c-nude mouse xenografted with human MGC-803 cells assessed as abnormal behaviour at 30 mg/kg/day, ip administered for 18 days; format: organism-based; details: in vivo, 432 h, time 18 day
[2] = test system: MGC-803; test: Antitumor activity against human MGC-803 cells xenografted in BALB/c-nude mouse assessed as tumor growth rate at 30 mg/kg/day, ip administered for 18 days relative to control; format: functional; details: time 18 day
[3] = test system: MGC-803; test: Antitumor activity against human MGC-803 cells xenografted in BALB/c-nude mouse assessed as tumor growth inhibition at 30 mg/kg/day, ip administered for 18 days relative to control; format: functional; details: MGC-803, 432 h, time 18 day, read-out: TGI
[4] = Toxicity in BALB/c-nude mouse xenografted with human MGC-803 cells assessed as change in body weight at 30 mg/kg/day, ip administered for 18 days; format: organism-based; details: in vivo, 432 h, time 18 day
[5] = test system: MGC-803; test: Antitumor activity against human MGC-803 cells xenografted in BALB/c-nude mouse assessed as tumor weight at 30 mg/kg/day, ip administered for 18 days (reference value: 0.656 g); format: functional; details: time 18 day
[6] = test system: KYSE-30; test: Antiproliferative activity against human KYSE-30 cells assessed as inhibition of cell growth incubated for 48 hrs by MTT assay; format: functional, cell-based; details: KYSE-30, 48 h
[7] = test system: HCT-116; test: Antiproliferative activity against human HCT-116 cells assessed as inhibition of cell growth incubated for 48 hrs by MTT assay; format: functional, cell-based; details: HCT-116, 48 h
[8] = test system: MGC-803; test: Antiproliferative activity against human MGC-803 cells assessed as inhibition of cell growth incubated for 48 hrs by MTT assay; format: functional, cell-based; details: MGC-803, 48 h

## COc1ccc(/C=C\c2cc(OC)c(OC)c(OC)c2)cc1O [COMBRETASTATIN A4]
[1]
  Activity: Non-Toxic
[2]
  Activity: 38%
[3]
  inhibition in vivo at 30 mg/kg/day: 58.5%
[4]
  Activity: Non-Toxic
[5]
  Activity: 0.272 g

## Cc1ccc2c(c1)CCCN2c1cc(=O)oc2ccccc12
[6]
  IC50: 400 nM
[7]
  IC50: 450 nM
[8]
  IC50: 420 nM

## COc1ccc2c(c1)CCCN2C(=O)c1cc2ccccc2oc1=O
[6]
  IC50: 7190 nM
[7]
  IC50: 5580 nM
[8]
  IC50: 4140 nM

## O=c1cc(N2CCCC2)c2ccccc2o1
[6]
  IC50: > 20000 nM
[7]
  IC50: > 20000 nM
[8]
  IC50: > 20000 nM

## COc1ccc2c(c1)CCN2C(=O)c1cc2ccccc2oc1=O
[6]
  IC50: 9080 nM
[7]
  IC50: 9440 nM
[8]
  IC50: 7410 nM

## COc1ccc2c(c1)NC(=O)CN2c1cc(=O)oc2ccccc12
[6]
  IC50: 34 nM
[7]
  IC50: 38 nM
[8]
  IC50: 12 nM

## O=c1cc(N2CCc3ccccc32)c2ccccc2o1
[6]
  IC50: 2180 nM
[7]
  IC50: 2980 nM
[8]
  IC50: 1290 nM

## O=c1cc(N2CCCc3ccccc32)c2ccccc2o1
[6]
  IC50: 680 nM
[7]
  IC50: 730 nM
[8]
  IC50: 670 nM

## O=C(c1cc2ccccc2oc1=O)N1CCc2cc(Br)ccc21
[6]
  IC50: 17100 nM
[7]
  IC50: 14200 nM
[8]
  IC50: 13100 nM

## O=c1cc(N2CCOCC2)c2ccccc2o1
[6]
  IC50: > 20000 nM
[7]
  IC50: > 20000 nM
[8]
  IC50: > 20000 nM

## Cc1ccc2c(c1)CCN2c1cc(=O)oc2ccccc12
[6]
  IC50: 1970 nM
[7]
  IC50: 2280 nM
[8]
  IC50: 2090 nM

## COC1CCN(c2cc(=O)oc3ccccc23)CC1
[6]
  IC50: > 20000 nM
[7]
  IC50: > 20000 nM
[8]
  IC50: > 20000 nM

## COc1ccc(N2CCN(c3cc(=O)oc4ccccc34)CC2)cc1
[6]
  IC50: > 20000 nM
[7]
  IC50: 18700 nM
[8]
  IC50: 18100 nM

## O=c1cc(N2CCCc3cc(O)ccc32)c2ccccc2o1
[6]
  IC50: 870 nM
[7]
  IC50: 910 nM
[8]
  IC50: 880 nM

## COc1cc2c(c(OC)c1OC)-c1ccc(OC)c(=O)cc1[C@@H](NC(C)=O)CC2 [COLCHICINE]
[6]
  IC50: 68 nM
[7]
  IC50: 55 nM
[8]
  IC50: 41 nM

## O=C(c1cc2ccccc2oc1=O)N1CCCc2cc(Cl)ccc21
[6]
  IC50: 13200 nM
[7]
  IC50: 11900 nM
[8]
  IC50: 9990 nM

## CC1CCN(c2cc(=O)oc3ccccc23)CC1
[6]
  IC50: > 20000 nM
[7]
  IC50: > 20000 nM
[8]
  IC50: > 20000 nM

## CN1CCN(c2cc(=O)oc3ccccc23)CC1
[6]
  IC50: > 20000 nM
[7]
  IC50: > 20000 nM
[8]
  IC50: > 20000 nM

## O=c1cc(N2CCCc3cc(Br)ccc32)c2ccccc2o1
[6]
  IC50: 1520 nM
[7]
  IC50: 1470 nM
[8]
  IC50: 1190 nM

## COc1ccc2c(c1)CCN2c1cc(=O)oc2ccccc12
[6]
  IC50: 150 nM
[7]
  IC50: 160 nM
[8]
  IC50: 120 nM
